Holding throughout (type): cell-based, human
Data set [1] relates to HaCaT cells. The conditions noted are these: for LDH (mU): human, 2 μM. Here is the method:
(§1) HaCaT keratinocyte proliferation assay and LDH release were described previously in full detail (Muller et al. J. Med. Chem. 39: 3132-3138, 1996; Müller et al. J. Med. Chem. 37: 1660-1669, 1994). For the cancer cell line studies, exponentially growing cells were seeded at 1,000 cells per well in six-well plates and allowed to attach for 24 h. Compounds of the invention or β-lapachone, solubflized in DMSO, were added to the wells in micromolar concentrations. Control wells were treated with equivalent volumes of DMSO. After 4 h the supernatant was removed and fresh medium was added. Cultures were observed daily for 10-15 days and then were fixed and stained. Colonies of greater than 30 cells were scored as survivors.
The cytotoxicity of naphthoquinones has been thought to result, at least in part, from reactive oxygen species, generated during redox cycling between the […] and reduction products (Munday, R., Free Radic. Biol. Med., 22, 689-695, 1997), which cause peroxidative damage to membrane lipids. To assess the correlation of keratinocyte growth inhibition with membrane damage, the release of lactate dehydrogenase from the treated cells was also quantitated.

For data set [2], the system named is colon cancer cell line DLD1. The experiment in a line: Cancer cell line colony survival assay, DLD1. The note with it: colon cancer cell line DLD1, 4 h exposure, colonies after 10-15 days, read-out: AA in Cancer Cell Lines IC50 (μM) DLD1. The protocol:
as §1

Data set [3] has as its system HaCaT cells. Kind of data set: HaCaT keratinocyte proliferation assay (cell counting). The conditions noted are these: for inhibition of HaCaT cell proliferation (in words): HaCaT cells; for IC50: antiproliferative activity against HaCaT cells, N = 3, read-out: AA in HaCaT Cells IC50. The protocol:
Anthralin, an antipsoriatic drug, was used as a positive control. Antiproliferative activity was measured directly by counting the dispersed cells under a phase-contrast microscope.
as §1, with “survivors. […]” for “survivors.”

Data set [4] relates to breast cancer cell line MCF7. Kind of data set: Cancer cell line colony survival assay, MCF7. The conditions noted are these: breast cancer cell line MCF7, 4 h exposure, colonies after 10-15 days, read-out: AA in Cancer Cell Lines IC50 (μM) MCF7. Here is the method: as §1
Data set [5] concerns colon cancer cell line SW480. Kind of data set: Cancer cell line colony survival assay, SW480. The conditions noted are these: colon cancer cell line SW480, 4 h exposure, colonies after 10-15 days, read-out: AA in Cancer Cell Lines IC50 (μM) SW480. The protocol:
as §1

Structures are written as SMILES. Where two headings read alike, the source gives them in different places.

These results are taken from patent publication US20060142271A1, “Novel lapacho compounds and methods of use thereof” (priority 2002, published 2006).

The term IC50 denotes the concentration needed to halve the response being measured. As for `CC(=O)c1cc2c(o1)C(=O)c1ccccc1C2=O` [Compound 6, 2-Acetyl-naphtho[2,3-b]furan4,9-dione], the “LDH release compared to vehicle control (in words)” value in data set [1] was “significant LDH release as compared to vehicle”. In data set [1], the “LDH (mU)” value is given as 331 mU. The IC50 in data set [2] (Homo sapiens, DLD-1) was 0.8 µM; in data set [3] (Homo sapiens), 0.5 µM; in data set [4] (Homo sapiens) it was not above 1 µM; in data set [5] (Homo sapiens), not above 1 µM. In data set [3], the “inhibition of HaCaT cell proliferation (in words)” value (“inhibition” for short) was “inhibited cell proliferation”.

As to `O=C1c2c(O)cccc2Cc2cccc(O)c21` [anthralin, reference compound], in data set [1], the “LDH release compared to vehicle control (in words)” value is “LDH release significantly higher than vehicle controls” and the “LDH (mU)” value was 294 mU. Besides, the IC50 in data set [3] (Homo sapiens) amounted to 0.7 µM.

For the compound `COc1ccc(C(=O)c2cc3c(s2)C(=O)c2ccccc2C3=O)cc1` [Compound 62b, 2-(4-Methoxybenzoyl)-naphtho[2,3-b]thiophene-4,9-dione], the IC50 in data set [2] (Homo sapiens, DLD-1) was 5.5 µM; in data set [3] (Homo sapiens), more than 5 µM; in data set [4] (Homo sapiens), 3 µM; in data set [5] (Homo sapiens), 16 µM.

Turning to `COc1ccc(C(=O)c2cc3cc4ccccc4cc3s2)cc1` [Compound 62a, (4-Methoxyphenyl)-naphtho[2,3-b]thiophen-2-yl-methanone], the IC50 in data set [2] (Homo sapiens, DLD-1) is more than 32 µM; in data set [3] (Homo sapiens) it was more than 5 µM; in data set [4] (Homo sapiens) it was more than 32 µM; in data set [5] (Homo sapiens), more than 32 µM.

Take `CC(=O)Oc1cccc2c1C(=O)c1ccsc1C2=O` [Compound 81, 5-Acetoxy-naphtho[2,3-b]thiophene-4,9-dione]: in data set [1], the “LDH release compared to vehicle control (in words)” value is “without significant elevation of LDH release over the vehicle control” and the “LDH (mU)” value stood at 160 mU. In data set [3], the “inhibition” value is “inhibited cell proliferation at concentrations comparable to β-lapachone and the furan analogs”. Moreover, the half-inhibitory concentration (IC50) in data set [3] (Homo sapiens) worked out at 1.4 µM.

Consider `COc1ccc(C(=O)c2cc3cc4ccccc4cc3o2)cc1OC` [Compound 75a, (3,4-Dimethoxyphenyl)-naphtho[2,3-b]furan-2-yl-methanone], for which the concentration for half-maximal inhibition (IC50) was 14 µM in data set [2] (Homo sapiens, DLD-1); more than 5 µM in data set [3] (Homo sapiens); 12 µM in data set [4] (Homo sapiens); 30 µM in data set [5] (Homo sapiens).

Regarding `CC(=O)c1cc2cc3ccccc3cc2s1` [Compound 63a, Naphtho[2,3-b]thiophen-2-yl-ethanone], the “LDH release compared to vehicle control (in words)” value in data set [1] is on record as “without significant elevation of LDH release over the vehicle control”. Also, the half-inhibitory concentration (IC50) was more than 32 µM in data set [2], 5 µM in data set [3], more than 32 µM in data set [4] and more than 32 µM in data set [5]. In data set [3], the “inhibition” value is “inhibited cell proliferation at concentrations comparable to β-lapachone and the furan analogs”.

As to `O=C1c2cccc(O)c2C(=O)c2ccsc21` [Compound 82, 5-Hydroxy-naphtho[2,3-b]thiophene-4,9-dione], in data set [1], the “LDH release compared to vehicle control (in words)” value is reported as “without significant elevation of LDH release over the vehicle control” and the “LDH (mU)” value worked out at 117 mU. The “inhibition” value in data set [3] is “inhibited cell proliferation at concentrations comparable to β-lapachone and the furan analogs”. Also, the 50% inhibitory concentration (IC50) in data set [3] (Homo sapiens) stood at 1 µM.

On to `CC(=O)c1cc2cc3ccccc3cc2o1` [Compound 73a, Naphtho[2,3-b]furan-2-yl-ethanone], for which the half-maximal inhibitory concentration (IC50) is more than 32 µM in data set [2], more than 5 µM in data set [3], more than 32 µM in data set [4] and more than 32 µM in data set [5].

With `O=C(c1ccc(O)cc1)c1cc2c(s1)C(=O)c1ccccc1C2=O` [Compound 62c, 2-(4-Hydroxybenzoyl)-naphtho[2,3-b]thiophene-4,9-dione], the “LDH (mU)” value in data set [1] was determined as 123 mU. Further, the half-maximal inhibitory concentration (IC50) turned out to be 5.3 µM in data set [2] (Homo sapiens, DLD-1); 2.7 µM in data set [3] (Homo sapiens); 2 µM in data set [4] (Homo sapiens); 12 µM in data set [5] (Homo sapiens).

Take `COc1ccc(C(=O)c2cc3c(o2)C(=O)c2ccccc2C3=O)cc1OC` [Compound 75b, 2-(3,4-Dimethoxybenzoyl)-naphtho[2,3-b]furan:4,9-dione]: the values for the 50% inhibitory concentration (IC50) in data set [2] and in data set [3] were 1.4 µM and 2.5 µM, respectively.
